Eight molecules from patent US20250154144A1 (CHILDREN'S HOSPITAL MEDICAL CENTER, priority 2021, published 2025) can be followed below.

One test concerns MOLM14 D835Y cells. The test can be described thus: cells. The class given is cell-based. The note with it: Homo sapiens, MOLM-14, 48 h, 48 hours, Cell Titer Glo; read-out: MOLM14 D835Y IC50. (In ATP-based viability assays light output follows the ATP content of the culture.)
A further test deals with T1, FLT3 (Homo sapiens, UniProt P36888).
T1 sequence (P36888 610-943 limits assumed): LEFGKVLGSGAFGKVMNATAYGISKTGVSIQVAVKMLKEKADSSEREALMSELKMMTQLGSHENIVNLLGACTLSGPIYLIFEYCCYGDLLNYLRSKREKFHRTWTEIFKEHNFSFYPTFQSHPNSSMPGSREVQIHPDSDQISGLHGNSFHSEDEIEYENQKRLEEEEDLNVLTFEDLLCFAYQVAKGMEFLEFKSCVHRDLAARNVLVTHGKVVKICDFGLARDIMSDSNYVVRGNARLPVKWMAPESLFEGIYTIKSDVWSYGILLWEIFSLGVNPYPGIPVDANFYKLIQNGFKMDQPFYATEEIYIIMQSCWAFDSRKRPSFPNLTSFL
The test can be described thus: RBC HotSpot Kinase Assay, FLT3.

The next test deals with T2, FLT3 ITD, F691L (Homo sapiens, UniProt P36888, F691L, form not given).
T2 sequence (P36888 1-993 F691L): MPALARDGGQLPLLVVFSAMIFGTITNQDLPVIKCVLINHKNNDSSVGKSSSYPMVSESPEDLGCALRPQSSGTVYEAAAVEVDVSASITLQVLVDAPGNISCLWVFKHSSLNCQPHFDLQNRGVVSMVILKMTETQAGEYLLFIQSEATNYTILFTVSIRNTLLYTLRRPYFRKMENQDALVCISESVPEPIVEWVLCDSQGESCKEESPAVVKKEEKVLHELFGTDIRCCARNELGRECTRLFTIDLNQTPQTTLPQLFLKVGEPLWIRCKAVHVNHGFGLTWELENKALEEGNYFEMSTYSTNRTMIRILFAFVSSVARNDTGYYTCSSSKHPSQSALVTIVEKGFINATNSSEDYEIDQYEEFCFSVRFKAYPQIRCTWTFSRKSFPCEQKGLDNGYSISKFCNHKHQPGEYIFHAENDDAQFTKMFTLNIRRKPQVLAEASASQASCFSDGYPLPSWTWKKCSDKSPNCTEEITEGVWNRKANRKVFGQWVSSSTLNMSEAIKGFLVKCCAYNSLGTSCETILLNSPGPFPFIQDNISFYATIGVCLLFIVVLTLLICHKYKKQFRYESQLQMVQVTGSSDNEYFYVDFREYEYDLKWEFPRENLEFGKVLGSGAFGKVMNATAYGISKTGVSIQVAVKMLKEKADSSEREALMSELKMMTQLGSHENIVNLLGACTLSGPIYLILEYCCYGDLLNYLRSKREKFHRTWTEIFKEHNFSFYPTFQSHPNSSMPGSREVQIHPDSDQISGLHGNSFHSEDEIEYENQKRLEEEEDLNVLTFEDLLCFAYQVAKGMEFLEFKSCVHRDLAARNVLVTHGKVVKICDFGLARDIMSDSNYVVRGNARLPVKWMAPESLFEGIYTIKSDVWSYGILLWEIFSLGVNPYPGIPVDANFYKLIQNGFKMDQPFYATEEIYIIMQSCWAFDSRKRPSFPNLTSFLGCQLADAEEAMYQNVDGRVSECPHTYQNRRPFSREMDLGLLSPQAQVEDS
The test can be described thus: DiscoverX KINOMEscan competition binding, FLT3 ITD, F691L. The note with it: read-out: FLT3 ITD, F691L Kd.

For a further test, the target named is T3, FLT3 K663Q (Homo sapiens, UniProt P36888, K663Q).
T3 construct: purchased DiscoverX (KINOMEscan)
T3 sequence (P36888 27-993 K663Q): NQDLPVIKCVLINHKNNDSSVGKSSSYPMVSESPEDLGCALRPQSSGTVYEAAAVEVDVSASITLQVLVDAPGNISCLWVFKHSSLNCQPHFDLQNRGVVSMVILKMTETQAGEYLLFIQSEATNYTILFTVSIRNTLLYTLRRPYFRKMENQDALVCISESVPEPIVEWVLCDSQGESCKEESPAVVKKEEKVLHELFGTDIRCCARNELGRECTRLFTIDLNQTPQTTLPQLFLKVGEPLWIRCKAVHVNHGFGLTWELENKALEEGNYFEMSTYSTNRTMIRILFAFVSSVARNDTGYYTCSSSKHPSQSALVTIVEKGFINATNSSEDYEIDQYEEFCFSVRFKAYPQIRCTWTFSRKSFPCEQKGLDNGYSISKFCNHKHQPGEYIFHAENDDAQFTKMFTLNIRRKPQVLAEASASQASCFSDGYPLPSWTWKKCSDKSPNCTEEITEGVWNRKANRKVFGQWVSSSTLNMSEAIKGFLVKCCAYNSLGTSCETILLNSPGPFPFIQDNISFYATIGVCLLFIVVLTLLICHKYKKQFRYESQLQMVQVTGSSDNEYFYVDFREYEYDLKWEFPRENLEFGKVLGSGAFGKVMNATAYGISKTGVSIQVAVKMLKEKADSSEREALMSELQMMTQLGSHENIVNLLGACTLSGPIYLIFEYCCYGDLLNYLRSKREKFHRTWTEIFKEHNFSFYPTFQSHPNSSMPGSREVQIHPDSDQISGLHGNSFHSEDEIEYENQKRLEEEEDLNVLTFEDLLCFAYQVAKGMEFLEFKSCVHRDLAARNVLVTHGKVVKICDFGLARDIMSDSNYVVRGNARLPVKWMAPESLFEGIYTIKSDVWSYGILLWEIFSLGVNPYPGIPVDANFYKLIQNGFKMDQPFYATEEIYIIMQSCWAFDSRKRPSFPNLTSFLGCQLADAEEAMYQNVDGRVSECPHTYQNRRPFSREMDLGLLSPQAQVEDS
Briefly: DiscoverX KINOMEscan competition binding, FLT3 K663Q.

In another test the target is T4, IRAK4 (Homo sapiens, UniProt Q9NWZ3).
T4 sequence (Q9NWZ3 1-460): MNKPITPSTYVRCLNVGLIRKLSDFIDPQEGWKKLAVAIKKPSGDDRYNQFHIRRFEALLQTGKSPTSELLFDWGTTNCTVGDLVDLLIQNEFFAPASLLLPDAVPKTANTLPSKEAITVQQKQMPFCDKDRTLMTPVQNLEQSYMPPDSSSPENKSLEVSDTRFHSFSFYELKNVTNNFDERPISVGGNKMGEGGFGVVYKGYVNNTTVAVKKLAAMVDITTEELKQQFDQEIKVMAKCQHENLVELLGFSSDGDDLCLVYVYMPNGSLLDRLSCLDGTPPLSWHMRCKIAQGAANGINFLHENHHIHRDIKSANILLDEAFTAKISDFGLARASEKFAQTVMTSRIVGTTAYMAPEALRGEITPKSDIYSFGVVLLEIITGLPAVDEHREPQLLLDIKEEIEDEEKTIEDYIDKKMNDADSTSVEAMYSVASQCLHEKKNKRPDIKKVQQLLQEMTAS
The test can be described thus: Reaction Biology NanoBRET target engagement assay in HEK-293 cells, IRAK4. The note with it: NanoBRET IRAK4 IC50, HEK-293 cells. A general note: In BRET a luciferase serves as donor, and the signal depends on an acceptor being close.

SMILES strings stand for the structures. Read-outs that look alike come from different tables or passages of the source.

Consider `COc1cc2ncc(-c3ccnc(N[C@@H]4CCCNC4)n3)n2nc1C1CC1` [Compound 50, (R)-4-(6-cyclopropyl-7-methoxyimidazo[1,2-b]pyridazin-3-yl)-N-(piperidin-3-yl)pyrimidin-2-amine], for which the figures for the IC50 in the test with MOLM14 D835Y cells and against FLT3 (FLT3 IC50) were 17 nM and less than 0.5 nM, respectively.
As for `COc1cc2ncc(-c3cncc(N[C@H]4CNCC[C@@H]4F)n3)n2nc1C1CC1` [Compound 24, 6-(6-cyclopropyl-7-methoxyimidazo[1,2-b]pyridazin-3-yl)-N-((3S,4S)-4-fluoropiperidin-3-yl)pyrazin-2-amine], the Kd turned out to be 0.048 nM on FLT3 ITD, F691L and 3.8 nM at FLT3 K663Q. Besides, the half-inhibitory concentration (IC50) on FLT3 (FLT3 IC50) was less than 0.5 nM; against IRAK4 it was 1 nM.
In the same order, the values of `COc1cc2ncc(-c3cncc(N[C@H]4CNC[C@@H]4F)n3)n2nc1C1CC1` [Compound 22, 6-(6-cyclopropyl-7-methoxyimidazo[1,2-b]pyridazin-3-yl)-N-((3S,4S)-4-fluoropyrrolidin-3-yl)pyrazin-2-amine] are 0.078 nM, 18 nM, less than 0.5 nM and 9 nM.
Consider `COc1cc2ncc(-c3ccnc(N[C@H]4CNC[C@@H]4F)n3)n2nc1C1CC1` [Compound 49, 4-(6-cyclopropyl-7-methoxyimidazo[1,2-b]pyridazin-3-yl)-N-((3S,4S)-4-fluoropyrrolidin-3-yl)pyrimidin-2-amine], for which the Kd on FLT3 ITD, F691L came to 0.085 nM; on FLT3 K663Q, 2.2 nM. For the same molecule, the IC50 with MOLM14 D835Y cells is 24 nM; on FLT3 (FLT3 IC50) it was less than 0.5 nM.
Take `CC(O)(c1cn2c(-c3ccnc(N[C@H]4CNCC[C@@H]4F)n3)cnc2cn1)C(F)(F)F` (single isomer, unassigned) [Compound 72]: the Kd worked out at 1.8 nM at FLT3 ITD, F691L and 21 nM at FLT3 K663Q. For the same molecule, the IC50 in the test with MOLM14 D835Y cells is 55 nM; at FLT3 (read-out: FLT3 IC50), less than 0.5 nM; against IRAK4, less than 0.5 nM.
As for `F[C@H]1CCNC[C@@H]1Nc1cncc(-c2cnc3cc(OC4CC4)ccn23)n1` [Compound 12, 6-(7-cyclopropoxyimidazo[1,2-a]pyridin-3-yl)-N-((3S,4S)-4-fluoropiperidin-3-yl)pyrazin-2-amine], the Kd at FLT3 ITD, F691L worked out at 0.046 nM; at FLT3 K663Q, 13 nM. Besides, the IC50 in the test on MOLM14 D835Y cells is 34 nM; on FLT3 (FLT3 IC50) it was less than 0.5 nM; at IRAK4 it was 1 nM.
In the same order, the values of `COc1cc2ncc(-c3ccnc(N[C@@H]4CCCNC4)n3)n2cc1C(C)(C)O` [Compound 44, (R)-2-(7-methoxy-3-(2-(piperidin-3-ylamino)pyrimidin-4-yl)imidazo[1,2-a]pyridin-6-yl)propan-2-ol] are 0.092 nM, 2.9 nM, 11 nM, less than 0.5 nM and less than 0.5 nM.
In the same order, the values of `COc1cc2ncc(-c3ccnc(N[C@H]4CNCC[C@@H]4F)n3)n2nc1C1CC1` [Compound 51, 4-(6-cyclopropyl-7-methoxyimidazo[1,2-b]pyridazin-3-yl)-N-((3S,4S)-4-fluoropiperidin-3-yl)pyrimidin-2-amine] are 0.08 nM, 0.82 nM, 6 nM, less than 0.5 nM and 1 nM.

Broadly, the IC50 is the point on the concentration scale where inhibition reaches its midpoint. For orientation: Kd means a measure of binding affinity in units of concentration.
